What all share (test): drug sensitivity score (DSS2, normalised partial AUC of dose-response, 72 h CellTiter-Glo viability) (DSS (dimensionless)); higher = more sensitive (stronger growth inhibition / cytotoxicity); extreme values may be limits of the assay
(In general: In ATP-based viability assays light output follows the ATP content of the culture.)

One assay has as its system 22Rv1. A digest of the protocol: (§1)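 Five doses spanning a 10,000-fold range were pre-dispensed into 384-well plates, into which low-passage primary prostate cancer-associated fibroblasts, PF179T, WPMY-1, LNCaP and 22Rv1 cells were seeded. After 72 h, CellTiter-Glo 2.0 luminescence measured viability, scaled to vehicle and positive-control wells. Higher values of the drug sensitivity score, a BREEZE-computed partial area under the fitted logistic dose–response curve divided by the log of the upper asymptote, mean greater sensitivity.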

The test system of the next assay is CAF#1 (primary prostate cancer-associated fibroblasts of myCAF-like type). A digest of the protocol: as §1
A further assay has as its system CAF#2 (primary prostate cancer-associated fibroblasts of iCAF-like type). A digest of the protocol: as §1
In another assay the test system is CAF#3 (primary prostate cancer-associated fibroblasts of myCAF-like type). An outline of the steps: as §1
The subject of the next assay is CAF#4 (primary prostate cancer-associated fibroblasts of iCAF-like type). A digest of the protocol:
as §1

Another assay has as its system CAF#5 (primary prostate cancer-associated fibroblasts of myCAF-like type). An outline of the steps: as §1
The next assay deals with CAF#6 (primary prostate cancer-associated fibroblasts of iCAF-like type). An outline of the steps: as §1
In the next assay the test system is CAF#7 (primary prostate cancer-associated fibroblasts of myCAF-like type). An outline of the steps: as §1
A further assay deals with LNCAP. A digest of the protocol: as §1
Another assay deals with PF179T. A digest of the protocol:
as §1

Another assay has as its system WPMY-1. An outline of the steps:
as §1

The record followed here is the supplement of paper PMC12592484.

On to `COc1ccc(C[C@H](NC(=O)[C@H](C)NC(=O)CN2CCOCC2)C(=O)N[C@@H](Cc2ccccc2)C(=O)C2(C)CO2)cc1` (stereo in doubt) [ONX-0914] (tested concentration range 1-10000 nM), for which the drug sensitivity score turned out to be 18 with 22Rv1; 14 with CAF#1; 16 in the assay with CAF#2; 15.5 in the assay on CAF#3; 10.3 with CAF#4; 18.3 in the assay with CAF#5. The drug sensitivity score with CAF#6 turned out to be 15; with CAF#7, 15.6; in the assay on LNCAP, 19.3; with PF179T, 14.8; in the assay on WPMY-1, 23.4.

As for `Cc1ccc(C(=O)N(CCCN)[C@@H](c2oc3cc(Cl)ccc3c(=O)c2Cc2ccccc2)C(C)C)cc1` (tested concentration range 0-100 nM), the drug sensitivity score came out at 3.6 in the assay with 22Rv1; 1.6 in the assay with CAF#1; 7.1 in the assay with CAF#2; 0.4 in the assay on CAF#3; 2.5 in the assay with CAF#4; 4.3 with CAF#5. For the same molecule, the drug sensitivity score in the assay on CAF#6 is 1.6; with CAF#7, 1.3; in the assay on LNCAP, 19.3; in the assay with PF179T, 2.9; in the assay on WPMY-1, 4.

With `CNS(=O)(=O)Nc1nccc(Cc2c(C)c3ccc(Oc4ncccn4)cc3oc2=O)c1F` (tested concentration range 0.1-1000 nM), the drug sensitivity score is 0.2 in the assay on 22Rv1; 0 in the assay on CAF#1; 0 in the assay with CAF#2; 0 in the assay on CAF#3; 0 in the assay on CAF#4; 0 in the assay on CAF#5. For the same molecule, the drug sensitivity score in the assay with CAF#6 amounted to 0; in the assay with CAF#7, 0; in the assay with LNCAP, 1.1; with PF179T, 0; in the assay with WPMY-1 it was 0.

In the case of `C[C@@H](Oc1ccc2[nH]nc(/C=C/c3cnn(CCO)c3)c2c1)c1c(Cl)cncc1Cl` (tested concentration range 0.1-1000 nM), the drug sensitivity score was 2.9 with 22Rv1; 9.7 with CAF#1; 7.2 with CAF#2; 9.9 in the assay on CAF#3; 5.7 in the assay with CAF#4; 6.7 in the assay with CAF#5. Moreover, the drug sensitivity score in the assay with CAF#6 was 10.9; in the assay on CAF#7, 18.7; with LNCAP it was 2.5; with PF179T, 8.9; in the assay on WPMY-1 it was 8.

Regarding `Cc1c(-c2c(-c3ccc(F)o3)sc3ncnc(O[C@H](Cc4ccccc4OCc4ccnn4CC(F)(F)F)C(=O)O)c23)ccc(OCCN2CCN(C)CC2)c1Cl` (tested concentration range 0.1-1000 nM), the drug sensitivity score in the assay with 22Rv1 amounted to 0.7; in the assay on CAF#1, 0; in the assay with CAF#2 it was 0; with CAF#3, 0; in the assay with CAF#4, 0; in the assay on CAF#5, 0. In addition, the drug sensitivity score in the assay on CAF#6, with CAF#7, in the assay with LNCAP, with PF179T and with WPMY-1 was 0 throughout.

In the case of `Cc1c(-c2ccc(N3CCc4cccc(C(=O)Nc5nc6ccccc6s5)c4C3)nc2C(=O)O)cnn1CC12CC3CC(CC(C3)C1)C2` (tested concentration range 0.1-1000 nM), the drug sensitivity score is 0 in the assay with 22Rv1; 0 with CAF#1; 0 with CAF#2; 0 in the assay on CAF#3; 3.1 in the assay on CAF#4; 0 with CAF#5. Besides, the drug sensitivity score in the assay with CAF#6 came to 4.2; in the assay with CAF#7 it was 0.4; with LNCAP, 4.4; with PF179T, 0; in the assay on WPMY-1, 0.

For `CO[C@@H](C)Cn1c(=O)n(C)c2cnc3ccc(-c4cncc(C(C)(C)O)c4)cc3c21` (tested concentration range 0.2-2500 nM), the drug sensitivity score with 22Rv1 was found to be 16.8; in the assay on CAF#1 it was 14.1; in the assay with CAF#2, 13.5; in the assay on CAF#3, 10.3; in the assay with CAF#4, 10.7; in the assay with CAF#5, 14.5. Besides, the drug sensitivity score in the assay with CAF#6 came to 10.9; with CAF#7, 10.5; in the assay with LNCAP, 16.8; with PF179T, 14.1; with WPMY-1 it was 12.

For `Cc1cccc(CC(=O)N2CCc3c2ccc(-c2cn(C)c4ncnc(N)c24)c3F)n1` (tested concentration range 0.2-2500 nM), the drug sensitivity score is 0.1 in the assay on 22Rv1; 0 with CAF#1; 0 in the assay on CAF#2; 0 with CAF#3; 0 in the assay with CAF#4; 0 in the assay with CAF#5. The drug sensitivity score is 0 in the assay with CAF#6; 0 in the assay with CAF#7; 0.7 in the assay with LNCAP; 0 in the assay with PF179T; 0 with WPMY-1.

With `Cc1ncc(Cl)cc1NCc1ccc(C(=O)N[C@@H](CC2CCCC2)C(=O)NC2CC2)s1` (tested concentration range 0.5-5000 nM), the drug sensitivity score with 22Rv1 was found to be 0; in the assay on CAF#1 it was 0; in the assay on CAF#2 it was 3; in the assay on CAF#3, 0.4; in the assay on CAF#4, 0.6; with CAF#5, 2.1. The drug sensitivity score stood at 0 in the assay with CAF#6; 1.2 in the assay with CAF#7; 2 in the assay with LNCAP; 3.7 with PF179T; 0 in the assay with WPMY-1.

For `CCc1cncnc1N1CCN(Cc2nc3ccc(C(F)(F)F)cc3[nH]2)CC1` (tested concentration range 1-10000 nM), the drug sensitivity score is 2.9 with 22Rv1; 1.8 in the assay on CAF#1; 2.4 in the assay on CAF#2; 7.6 with CAF#3; 1.1 in the assay with CAF#4; 1.6 with CAF#5. The drug sensitivity score in the assay with CAF#6 stood at 0.5; in the assay with CAF#7, 0.9; in the assay on LNCAP, 4; in the assay on PF179T, 0; with WPMY-1 it was 1.7.

`N#Cc1ccc(COC[C@H]2O[C@@H](n3c(NCc4ccc(Cl)c(Cl)c4)nc4c(N)ncnc43)[C@H](O)[C@@H]2O)cc1` (tested concentration range 1-10000 nM): the drug sensitivity score with 22Rv1 came out at 6.9; with CAF#1, 3.7; in the assay with CAF#2, 5.7; in the assay on CAF#3, 0.6; in the assay with CAF#4, 5.7; in the assay with CAF#5 it was 4.7. Moreover, the drug sensitivity score in the assay on CAF#6 came out at 1.8; with CAF#7, 4.5; in the assay on LNCAP it was 5; in the assay with PF179T, 4.4; with WPMY-1 it was 1.9.

For `Nc1ncnc2c1c(COc1cccc(Cl)c1)nn2C1CCOCC1` (tested concentration range 1-10000 nM), the drug sensitivity score in the assay on 22Rv1 amounted to 0; in the assay with CAF#1, 2.5; in the assay with CAF#2 it was 2.1; in the assay with CAF#3, 2.8; in the assay with CAF#4, 0; in the assay with CAF#5, 1.8. For the same molecule, the drug sensitivity score with CAF#6 was 0.6; in the assay with CAF#7 it was 1; with LNCAP, 2.3; with PF179T it was 0; with WPMY-1, 0.

As for `CC1(C)OCCn2c1nc1c(N3CCOCC3)nc(-c3cnc(N)nc3)nc12` [Paxalisib] (tested concentration range 1-10000 nM), the drug sensitivity score in the assay with 22Rv1 worked out at 18.1; with CAF#1, 16; in the assay with CAF#4 it was 13; with CAF#5, 18.3; in the assay with LNCAP, 13.5.
